Assay results: patent US6057085A, “Color photographic recording material” (Agfa-Gevaert NV, priority 1997, dated 2000)

Experiment: log P(o/w), n-octanol/water two phase system
Assay type: physicochemical
From the text: *log P(o/w) is the decimal logarithm of the distribution coefficient
of a substance in the noctanol/water two phase system.

Compound | logP
CN(C)c1ccc(C=C(C#N)c2nc3cc(C(=O)O)ccc3o2)cc1 [Dye I-1] | < 5
Cc1cc(N(CC(=O)OC(C)COC(C)COC(C)(C)C)CC(=O)OC(C)COC(C)COC(C)(C)C)ccc1C=C(C#N)c1nc2cc(C(=O)O)ccc2o1 (centres unmarked) [Dye I-6] | < 5
CCOCCOCCN(CCOCCOCC)c1ccc(C=C(C#N)c2nc3cc(S(=O)(=O)NC(=O)CC)ccc3o2)cc1 [Dye I-10] | < 5
CCOCCOCCN(CCOCCOCC)c1ccc(C=C(C#N)c2nc3cc(S(=O)(=O)NC(=O)CC)ccc3s2)cc1 [Dye I-22] | < 5
CCCCOC(=O)CN(CC(=O)OCCCC)c1ccc(C=C(C#N)C(=O)c2ccc(NS(C)(=O)=O)cc2)c(C)c1 [GF-2] | < 5
CCCCS(=O)(=O)Nc1ccc(C2=C(C#N)C(=O)OC2=Cc2ccco2)cc1 [GF-3] | < 5
CCCCCCCCCCCCCCCCS(=O)(=O)Nc1ccc2nc(C(C#N)=Cc3ccc(N(CC)CC)cc3C)sc2c1 [GF-4] | > 5
CCCCCCCCCCCCNc1cc(C)c(C=C(C#N)c2nc3ccc(NS(C)(=O)=O)cc3o2)cc1C [GF-5] | > 5
